The structures appear in SMILES notation.

Experimental findings from patent US20140121258A1, “COMPOUNDS ACT AT MULTIPLE PROSTAGLANDIN RECEPTORS GIVING A GENERAL ANTI-INFLAMMATORY RESPONSE” (ALLERGAN, INC., priority 2010, published 2014) are described below.

Holding throughout (format): cell-based
For experiment [1], the target named is T1, human prostanoid EP3 receptor (Homo sapiens, UniProt P43115).
T1 construct: expressed in transfected cells
T1 sequence (P43115 1-390): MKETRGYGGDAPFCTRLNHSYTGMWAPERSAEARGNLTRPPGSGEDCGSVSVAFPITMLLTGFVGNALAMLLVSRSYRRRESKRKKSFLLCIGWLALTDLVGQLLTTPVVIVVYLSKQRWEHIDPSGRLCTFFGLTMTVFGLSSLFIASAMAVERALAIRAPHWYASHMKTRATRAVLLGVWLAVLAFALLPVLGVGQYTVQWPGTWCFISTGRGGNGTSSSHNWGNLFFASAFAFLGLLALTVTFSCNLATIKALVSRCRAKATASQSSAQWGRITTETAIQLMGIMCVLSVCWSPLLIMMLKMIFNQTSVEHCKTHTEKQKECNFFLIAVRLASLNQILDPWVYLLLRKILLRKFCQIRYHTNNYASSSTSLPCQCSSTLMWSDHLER
The experiment can be described thus: FLIPR Ca2+ signaling antagonist assay, EP3 receptor stable cell line. Particulars: HEK-293 EBNA stable cells with chimeric Gqi, standard agonist PGE2; NA = inactive (no antagonism or Kb≧10,000 nM). As to the method:
(§1) The above compounds were tested for PG antagonist activity as follows using human recombinant prostanoid receptor (DP1, EP1-4, FP, IP and TP) stable cell lines:
(§2) In order to measure the response of Gs and Gi coupled prostanoid receptors as a Ca^2+ signal, chimeric G protein cDNAs were used. Stable cell lines over-expressing human prostanoid DP1, EP1-4, FP, IP, and TP receptors were established as follows:
(§3) Briefly, human prostanoid DP1, EP2, and EP4 receptor cDNAs were co-transfected with chimeric Gqs cDNA containing a haemagglutanin (HA) epitope; human prostanoid EP3 receptors were co-transfected with chimeric Gqi-HA; human EP1, FP, IP, and TP receptor cDNAs were expressed with no exogenous G-proteins. Gqs and Gqi chimeric cDNAs (Molecular Devices, Sunnyvale, Calif., U.S.A.), as well as cDNAs of prostanoid receptors, were cloned into a pCEP4 vector with a hygromycin B selection marker. Transfection into HEK-293 EBNA (Epstein-Barr virus nuclear antigen) cells was achieved by the FuGENE 6 transfection Reagent (Roche Applied Science, Indianapolis, Ind., USA). Stable transfectants were selected according to hygromycin resistance. Because Gqs and Gqi contained an HA epitope, G-protein expression was detected by Western blotting analysis using anti-mouse HA monoclonal antibody and horseradish peroxidase (HRP)-conjugated secondary antibody, while functional expression of prostanoid receptors was detected by FLIPR screening (Matias et al., 2004). These stable cell lines were validated using previously published antagonists at 10 μM against serial dilutions of standard agonists by FLIPR functional assays for Ca^2+ Signaling (as described below).
Ca^2+ signaling studies were performed using a FLIPR TETRA system (Molecular Devices, Sunnyvale, Calif., USA) in the 384-format. […] Cells were excited with LED (light emitting diode) excitation at 470-495 nm and emission was measured through an emission filter at 515-575 nm. Assay plates were read for 3.5 minutes using the FLIPR^TETRA. The peak increase in fluorescence intensity was recorded for each well. […]

In experiment [2] the target is T2, human prostanoid EP4 receptor (Homo sapiens, UniProt P35408).
T2 construct: expressed in transfected cells
T2 sequence (P35408 whole entry): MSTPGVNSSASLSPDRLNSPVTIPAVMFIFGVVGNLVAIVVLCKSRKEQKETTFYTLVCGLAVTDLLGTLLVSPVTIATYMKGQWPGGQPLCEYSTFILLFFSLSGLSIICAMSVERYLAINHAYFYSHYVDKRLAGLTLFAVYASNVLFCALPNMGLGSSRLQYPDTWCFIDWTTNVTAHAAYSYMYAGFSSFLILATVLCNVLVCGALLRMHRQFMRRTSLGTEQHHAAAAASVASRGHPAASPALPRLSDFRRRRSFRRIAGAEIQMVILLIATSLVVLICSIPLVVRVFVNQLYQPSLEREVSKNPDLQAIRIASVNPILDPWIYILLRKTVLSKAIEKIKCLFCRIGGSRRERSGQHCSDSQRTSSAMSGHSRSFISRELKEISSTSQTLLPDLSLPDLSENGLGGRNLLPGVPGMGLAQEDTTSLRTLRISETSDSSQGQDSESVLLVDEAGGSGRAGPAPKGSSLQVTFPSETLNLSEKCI
The experiment can be described thus: FLIPR Ca2+ signaling antagonist assay, EP4 receptor stable cell line. The following applies: HEK-293 EBNA stable cells with chimeric Gqs, standard agonist PGE2; NA = inactive (no antagonism or Kb≧10,000 nM). As to the method:
as §1, §2, §3
(§4) Ca^2+ signaling studies were performed using a FLIPR TETRA system (Molecular Devices, Sunnyvale, Calif., USA) in the 384-format. This is a high-throughput instrument for cell-based assays to monitor Ca^2+ signaling associated with GPCRs and ion channels. Cells were seeded at a density of 5×10^4 cells/well in BioCoat poly-D-lysine coated, black wall, clear bottom 384-well plates (BD Biosciences, Franklin lakes, NJ, USA) and allowed to attach overnight in an incubator at 37° C. The cells were then washed twice with HBSS-HEPES buffer (Hanks' balanced salt solution without bicarbonate and phenol red, 20 mM HEPES, pH 7.4) using an ELx405 Select CW Microplate Washer (BioTek, Winooski, Vt., USA). After 60 min of dye-loading in the dark using the Ca^2+-sensitive dye Fluo-4AM (Invitrogen, Carlsbad, Calif., USA), at a final concentration of 2×10^−6M, the plates were washed 4 times with HBSS-HEPES buffer to remove excess dye and leaving 50 μl of buffer in each well. The plates were then placed in the FLIPR TETRA instrument and allowed to equilibrate at 37° C. AGN-211377 was added in a 25 μl volume to each well to give final concentrations of 0.1 μM, 0.3 μM, 1 μM, 3 μM, 10 μM, and 30 μM; or 0.067 μM, 0.1 μM, 0.2 μM, 0.3 μM, 0.67 μM, and 1 μM for cells over-expressing TP receptors. After 4.5 minutes, a 7-point serial dilution of the standard agonist for the corresponding receptor, in a 25 μl volume was injected at the final concentrations from 10^−11M to 10^−5M in 10-fold serial dilution increments for cells expressing human recombinant DP1, EP1, EP2, EP3, EP4, FP, and IP receptors. The dose range for the standard agonist for human recombinant TP receptors was from 10^−12M to 10^−6M. HBSS-HEPES buffer was used as the negative control for the standard agonists. Cells were excited with LED (light emitting diode) excitation at 470-495 nm and emission was measured through an emission filter at 515-575 nm. Assay plates were read for 3.5 minutes using the FLIPR^TETRA. The peak increase in fluorescence intensity was recorded for each well. On each plate, negative controls, dose response of positive controls, and co-treatments of antagonist-agonist for each dose were in triplicates. Standard agonists were as follows: DP=BW 245C, EP1-EP4=PGE2, FP=17-phenyl-PGF2α, IP=Cicaprost, and TP=U-46619. […]

The target in experiment [3] is T3, human prostanoid EP2 receptor (Homo sapiens, UniProt P43116).
T3 construct: expressed in transfected cells
T3 sequence (P43116 whole entry): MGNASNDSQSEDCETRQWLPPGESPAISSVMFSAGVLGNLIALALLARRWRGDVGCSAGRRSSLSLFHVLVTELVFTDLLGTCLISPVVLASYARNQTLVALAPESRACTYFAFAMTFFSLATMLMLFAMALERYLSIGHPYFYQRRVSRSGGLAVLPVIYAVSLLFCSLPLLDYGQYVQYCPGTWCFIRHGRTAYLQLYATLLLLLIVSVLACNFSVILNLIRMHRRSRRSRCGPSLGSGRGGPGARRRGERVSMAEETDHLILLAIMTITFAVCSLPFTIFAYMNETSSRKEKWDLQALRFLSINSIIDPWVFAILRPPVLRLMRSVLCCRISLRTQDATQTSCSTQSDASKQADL
The experiment can be described thus: FLIPR Ca2+ signaling antagonist assay, EP2 receptor stable cell line. The following applies: HEK-293 EBNA stable cells with chimeric Gqs, standard agonist PGE2; NA = inactive (no antagonism or Kb≧10,000 nM). On the procedure: as §1, §2, §3, §4

For experiment [4], the target named is T4, human prostanoid EP1 receptor (Homo sapiens, UniProt P34995).
T4 construct: expressed in transfected cells
T4 sequence (P34995 1-402): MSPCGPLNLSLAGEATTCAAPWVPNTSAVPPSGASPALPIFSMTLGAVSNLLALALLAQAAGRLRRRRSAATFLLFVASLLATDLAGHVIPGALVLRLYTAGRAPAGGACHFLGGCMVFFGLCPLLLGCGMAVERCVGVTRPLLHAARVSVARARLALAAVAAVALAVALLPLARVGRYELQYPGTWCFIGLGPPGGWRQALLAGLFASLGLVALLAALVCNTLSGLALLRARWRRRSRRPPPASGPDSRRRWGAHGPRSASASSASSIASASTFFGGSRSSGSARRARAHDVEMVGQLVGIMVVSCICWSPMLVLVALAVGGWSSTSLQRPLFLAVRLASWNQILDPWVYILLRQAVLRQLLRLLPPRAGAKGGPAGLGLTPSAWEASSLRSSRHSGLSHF
The experiment can be described thus: FLIPR Ca2+ signaling antagonist assay, EP1 receptor stable cell line. The following applies: HEK-293 EBNA stable cells, standard agonist PGE2; NA = inactive (no antagonism or Kb≧10,000 nM). As to the method:
as §1, §2, §3, §4

Take `Cc1cc(CCC(=O)NS(=O)(=O)C(F)(F)F)nn1Cc1cc(Cl)ccc1OCc1ccc(Cl)cc1` [Example 1, N-(3-{1-[5-Chloro-2-(4-Chloro-Benzyloxy)-Benzyl]-5-Methyl-1H-Pyrazol-3-yl}-Propionyl)-C,C,C-Trifluoromethanesulfonamide]: the Kb – broadly, the equilibrium dissociation constant of an antagonist, usually derived from a functional assay – in experiment [1] was 1.4 µM; in experiment [2] it was 150 nM; in experiment [3], 3100 nM; in experiment [4], 22 nM.

As to `Cc1cc(CCC(=O)O)nn1Cc1cc(Br)ccc1OCC1CCCC1` [Example 4, 3-[1-(5-Bromo-2-cyclopentylmethoxybenzyl)-5-methyl-1H-pyrazol-3-yl]-propionic acid], the Kb in experiment [1] amounted to 7.8 µM; in experiment [2] it was 120 nM; in experiment [3], 1200 nM; in experiment [4], 24 nM.

In the case of `CCC(CC)COc1ccc(Cl)cc1Cn1nc(CCC(=O)O)cc1C` [Example 3a, 3-{1-[5-Chloro-2-(2-ethyl-butoxy)-benzyl]-5-methyl-1H-pyrazol-3-yl}-propionic acid], the Kb was 7.1 µM in experiment [1], 68 nM in experiment [2], 2900 nM in experiment [3] and 71 nM in experiment [4].

`CCC(CC)COc1ccc(Br)cc1Cn1nc(CCC(=O)O)cc1C` [Example 3, 3-{1-[5-Bromo-2-(2-ethyl-butoxy)-benzyl]-5-methyl-1H-pyrazol-3-yl}-propionic acid]: the antagonist dissociation constant (Kb) in experiment [2] amounted to 85 nM; in experiment [3], 2300 nM; in experiment [4], 40 nM.
